Patent publication US12227495B2, “Herbicidal compounds” (SYNGENTA CROP PROTECTION AG, priority 2018, dated 2025)

Assays:
Format in all cases: in vivo
Solanum nigrum (SOLNI) [1] = assay: Pre-emergence herbicide test, glasshouse, percentage damage; conditions: rate 1000 g/ha, evaluated after 13 days
Outline: (§1)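 Pot-grown plants were sprayed at 500 g/ha unless otherwise stated, in acetone/water (50:50) with 0.5% Tween 20. Pre-emergence spraying was 1 day after sowing and post-emergence after 8 days, in a glasshouse at 24/16° C, 14 h light, 65% humidity. Percentage damage was scored 13 days later on a 1–5 scale (5=81-100%).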

[2] = tested on: Ipomoea hederacea (IPOHE); assay: as above; conditions: rate 1000 g/ha, evaluated after 13 days
Outline: as §1

[3] = tested on: Amaranthus retoflexus (AMARE); assay: as above; conditions: rate 1000 g/ha, evaluated after 13 days
Outline: as §1

[4] = tested on: Echinochloa crus-galli (ECHCG); assay: as above; conditions: rate 1000 g/ha, evaluated after 13 days
Outline: as §1

Lolium perenne (LOLPE) [5] = assay: as above; conditions: rate 1000 g/ha, evaluated after 13 days
Outline: as §1

Setaria faberi (SETFA) [6] = assay: as above; conditions: rate 1000 g/ha, evaluated after 13 days
Outline: as §1

Solanum nigrum (SOLNI) [7] = assay: Post-emergence herbicide test, glasshouse, percentage damage; conditions: 1000 g/ha, evaluated after 13 days
Outline: as §1

[8] = tested on: Ipomoea hederacea (IPOHE); assay: as above; conditions: 1000 g/ha, evaluated after 13 days
Outline: as §1

[9] = tested on: Amaranthus retoflexus (AMARE); assay: as above; conditions: 1000 g/ha, evaluated after 13 days
Outline: as §1

[10] = tested on: Echinochloa crus-galli (ECHCG); assay: as above; conditions: 1000 g/ha, evaluated after 13 days
Outline: as §1

Lolium perenne (LOLPE) [11] = assay: as above; conditions: 1000 g/ha, evaluated after 13 days
Outline: as §1

Setaria faberi (SETFA) [12] = assay: as above; conditions: 1000 g/ha, evaluated after 13 days
Outline: as §1

Compound | Pre-emergence Test SOLNI percentage damage (five point scale) (Solanum nigrum (SOLNI) [1]) | Pre-emergence Test IPOHE percentage damage (five point scale) [2] | Pre-emergence Test AMARE percentage damage (five point scale) [3] | Pre-emergence Test ECHCG percentage damage (five point scale) [4] | Pre-emergence Test LOLPE percentage damage (five point scale) (Lolium perenne (LOLPE) [5]) | Pre-emergence Test SETFA percentage damage (five point scale) (Setaria faberi (SETFA) [6]) | percentage damage caused to the plant, SOLNI (Solanum nigrum (SOLNI) [7]) | percentage damage caused to the plant, IPOHE [8] | percentage damage caused to the plant, AMARE [9] | percentage damage caused to the plant, ECHCG [10] | percentage damage caused to the plant, LOLPE (Lolium perenne (LOLPE) [11]) | percentage damage caused to the plant, SETFA (Setaria faberi (SETFA) [12])
FC(F)c1cc(-c2c(Cl)cccc2Oc2ccc(Cl)cn2)on1 [Compound A113] | 4 (4=61-80%) | 4 (4=61-80%) | 5 (5=81-100%) | 5 (5=81-100%) | 5 (5=81-100%) | 5 (5=81-100%) | 4 (4=61-80%) | 5 (5=81-100%) | 5 (5=81-100%) | 4 (4=61-80%) | 5 (5=81-100%) | 5 (5=81-100%)
Fc1cnc(Oc2cccc(Cl)c2-c2cc(C(F)F)no2)c(F)c1 [Compound A114] | 4 (4=61-80%) | 5 (5=81-100%) | 5 (5=81-100%) | 5 (5=81-100%) | 5 (5=81-100%) | 5 (5=81-100%) | 5 (5=81-100%) | 5 (5=81-100%) | 5 (5=81-100%) | 4 (4=61-80%) | 4 (4=61-80%) | 5 (5=81-100%)
N#Cc1ccc(Oc2cccc(Cl)c2-c2cc(C(F)F)no2)nc1 [Compound A115] | 4 (4=61-80%) | 5 (5=81-100%) | 5 (5=81-100%) | 5 (5=81-100%) | 5 (5=81-100%) | 5 (5=81-100%) | 5 (5=81-100%) | 5 (5=81-100%) | 5 (5=81-100%) | 4 (4=61-80%) | 4 (4=61-80%) | 5 (5=81-100%)
Fc1cc(Br)cnc1Oc1cccc(Cl)c1-c1cc(C(F)F)no1 [Compound A116] | 4 (4=61-80%) | 4 (4=61-80%) | 5 (5=81-100%) | 5 (5=81-100%) | 5 (5=81-100%) | 5 (5=81-100%) | 5 (5=81-100%) | 5 (5=81-100%) | 5 (5=81-100%) | 4 (4=61-80%) | 5 (5=81-100%) | 5 (5=81-100%)
Fc1cc(C(F)(F)F)cnc1Oc1cccc(Cl)c1-c1cc(C(F)F)no1 [Compound A117] | 2 (2=21-40%) | 5 (5=81-100%) | 5 (5=81-100%) | 4 (4=61-80%) | 4 (4=61-80%) | 5 (5=81-100%) | 4 (4=61-80%) | 5 (5=81-100%) | 5 (5=81-100%) | 4 (4=61-80%) | 4 (4=61-80%) | 4 (4=61-80%)
